Columns and labels:
human DP1 receptor = target: T1, human DP1 receptor (Homo sapiens, UniProt Q13258); experiment: DP1 radioligand binding assay using [3H]BWA868C; conditions: hDP1 binding
T1 construct: tissue Biological Specialty Corporation; host or cells: human platelets, membranes
T1 sequence (Q13258 1-359): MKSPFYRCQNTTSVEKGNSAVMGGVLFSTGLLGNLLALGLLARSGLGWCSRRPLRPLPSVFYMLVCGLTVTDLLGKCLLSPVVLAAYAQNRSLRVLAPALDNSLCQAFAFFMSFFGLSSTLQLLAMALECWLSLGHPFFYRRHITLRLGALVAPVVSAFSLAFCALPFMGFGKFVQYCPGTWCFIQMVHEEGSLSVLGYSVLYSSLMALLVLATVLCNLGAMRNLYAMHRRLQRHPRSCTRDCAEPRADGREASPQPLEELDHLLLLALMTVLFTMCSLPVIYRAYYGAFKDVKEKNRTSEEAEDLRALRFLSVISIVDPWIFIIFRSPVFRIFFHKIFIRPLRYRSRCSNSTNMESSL
Outline: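 Human platelet membranes (20 μg protein/well) incubated 60 min at room temperature with 2 nM [3H]BWA868C in 50 mM Hepes, 10 mM MnCl2, 1 mM EDTA, ±0.2% human serum albumin, pH 7.4. Bound label measured after filtration; nonspecific binding defined with 10 μM BW A868C. IC50 from titration curves.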

[1] = target: T2, recombinant human CRTH2 receptor (Homo sapiens, UniProt Q9Y5Y4); experiment: GTPγS binding assay; assay type: biochemical; conditions: +HSA; read-out: hDP2 GTPγS μM (+HSA)
T2 construct: expressed in transfected cells
T2 sequence (Q9Y5Y4 1-395): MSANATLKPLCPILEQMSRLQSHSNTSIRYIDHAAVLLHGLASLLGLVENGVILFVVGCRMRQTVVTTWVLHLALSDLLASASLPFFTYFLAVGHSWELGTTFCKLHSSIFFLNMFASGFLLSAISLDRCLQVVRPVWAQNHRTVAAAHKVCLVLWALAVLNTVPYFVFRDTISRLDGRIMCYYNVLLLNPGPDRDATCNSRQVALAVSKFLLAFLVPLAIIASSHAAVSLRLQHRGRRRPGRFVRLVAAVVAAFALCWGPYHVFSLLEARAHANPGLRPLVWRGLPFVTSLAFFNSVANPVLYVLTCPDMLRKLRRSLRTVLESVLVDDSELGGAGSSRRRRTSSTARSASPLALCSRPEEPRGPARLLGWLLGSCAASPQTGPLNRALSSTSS
Outline: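 Membranes from CHO cells stably expressing recombinant receptor (~12.5 μg/well), incubated 60 min at 30° C with 0.05 nM [^35S]-GTPγS, 80 nM PGD2, 5 μM GDP in pH 7.4 Hepes buffer with 0.2% human serum albumin. Filter-bound radioactivity counted; specific binding = total minus binding without PGD2; IC50 from titration curves.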

human DP2 receptor = target: T3, human DP2 receptor (Homo sapiens, UniProt Q9Y5Y4); experiment: DP2/CRTH2 radioligand binding assay using [3H]PGD2; conditions: hDP2 (CRTH2) binding assay
T3 construct: expressed in transfected cells
T3 sequence (Q9Y5Y4 1-395): T2 sequence (Q9Y5Y4 1-395)
Outline: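 HEK293 membranes with stable recombinant human DP2, incubated with 1 nM [3H]PGD2 and compound 60 min at room temperature in pH 7.4 HEPES/MnCl2/EDTA buffer, with or without 0.2% human serum albumin.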

IC50 (human DP1 receptor) [nM] | IC50 [1] [µM] | IC50 (human DP2 receptor) [nM] | SMILES
> 1000 | < 0.3 | < 300 | COc1ccc(CC(=O)O)cc1Oc1ccc(-c2cnn(C)c2)cc1CN1C(=O)O[C@@H](c2ccccc2)[C@H]1C [Compound 1-66, {4-Methoxy-3-[2-((4R,5S)-4-methyl-2-oxo-5-phenyl-oxazolidin-3-ylmethyl)-4-(1-methyl-1H-pyrazol-4-yl)-phenoxy]-phenyl}-acetic acid]
> 1000 | 0.3 to 1 | < 300 | O=C(O)Cc1cccc(Oc2ccc(-c3ccccc3)cc2CN2CCOC2=O)c1 [Compound 1-7, {3-[3-(2-Oxo-oxazolidin-3-ylmethyl)-biphenyl-4-yloxy]-phenyl}-acetic acid]
> 1000 | 0.3 to 1 | < 300 | COc1ccc(CC(=O)O)cc1Oc1ccc(C(F)(F)F)cc1CN1C(=O)O[C@@H](c2ccccc2)[C@H]1C [Compound 1-61, {4-Methoxy-3-[2-((4R,5S)-4-methyl-2-oxo-5-phenyl-oxazolidin-3-ylmethyl)-4-trifluoromethyl-phenoxy]-phenyl}-acetic acid]
> 1000 | < 0.3 | < 300 | C[C@@H]1[C@H](c2ccccc2)OC(=O)N1Cc1cc(Br)ccc1Oc1cc(CC(=O)O)ccc1O [Compound 1-87, {3-[4-Bromo-2-((4R,5S)-4-methyl-2-oxo-5-phenyl-oxazolidin-3-ylmethyl)-phenoxy]-4-hydroxy-phenyl}-acetic acid]
< 300 | < 0.3 | < 300 | C[C@H]1[C@@H](c2cc(F)cc(F)c2)OC(=O)N1Cc1cc(Br)ccc1Oc1cccc(CC(=O)O)c1 [Compound 1-17, (3-{4-Bromo-2-[(4S,5R)-5-(3,5-difluoro-phenyl)-4-methyl-2-oxo-oxazolidin-3-ylmethyl]-phenoxy}-phenyl)-acetic acid]
> 1000 | < 0.3 | < 300 | O=C(O)Cc1cc(Cl)cc(Oc2ccc(Br)cc2CN2CCOC2=O)c1 [Compound 1-89, {3-[4-Bromo-2-(2-oxo-oxazolidin-3-ylmethyl)-phenoxy]-5-chloro-phenyl}-acetic acid]
> 1000 | 0.3 to 1 | < 300 | O=C(O)Cc1cccc(Oc2ccc(C(F)(F)F)cc2CN2C(=O)O[C@@H]3Cc4ccccc4[C@@H]32)c1 [Compound 2-3, {3-[2-((3aS,8aR)-2-Oxo-8,8a-dihydro-3aH-indeno[1,2-d]oxazol-3-ylmethyl)-4-trifluoromethyl-phenoxy]-phenyl}-acetic acid]
< 300 | 0.3 to 1 | < 300 | C[C@H]1[C@@H](c2ccccc2)OC(=O)N1Cc1cc(C(F)(F)F)ccc1Oc1cccc(CC(=O)O)c1 [Compound 1-77, {3-[2-((4S,5R)-4-Methyl-2-oxo-5-phenyl-oxazolidin-3-ylmethyl)-4-trifluoromethyl-phenoxy]-phenyl}-acetic acid]
> 1000 | 0.3 to 1 | 300 to 1000 | O=C(O)CCn1c2c(c3ccccc31)C[C@H](NS(=O)(=O)c1ccc(F)cc1)CC2 [Ramatroban, reference compound]
> 1000 | 0.3 to 1 | < 300 | C[C@@H]1[C@H](c2ccccc2)OC(=O)N1Cc1cc(Br)ccc1Oc1cc(CC(=O)O)ccc1Cl [Compound 1-58, {3-[4-Bromo-2-((4R,5S)-4-methyl-2-oxo-5-phenyl-oxazolidin-3-ylmethyl)-phenoxy]-4-chloro-phenyl}-acetic acid]
> 1000 | 0.3 to 1 | < 300 | C[C@@H]1[C@H](c2ccccc2)OC(=O)N1Cc1cc(C(F)(F)F)ccc1Oc1cc(CC(=O)O)ccc1OCc1ccccc1 [Compound 1-67, {4-Benzyloxy-3-[2-((4R,5S)-4-methyl-2-oxo-5-phenyl-oxazolidin-3-ylmethyl)-4-trifluoromethyl-phenoxy]-phenyl}-acetic acid]
